Results taken from PubChem BioAssay AID826 (PCMD, 2007).
The source made the active and inactive calls. The rule behind the calls is not given here. Where a SMILES comes first, the peptide text is derived from it. The star is where a group is joined. Boc = CC(C)(C)OC(=O)*

Biological target: DNA-directed RNA polymerase subunit beta (Escherichia coli (strain K12)) (UniProt P0A8V2)
Assay: E. coli RNAP inhibitors, dose response, biochemical, confirmation (AID 826)
Conditions: E. coli RNA polymerase biochemical transcription assay

DNA-directed RNA polymerase subunit beta (Escherichia coli (strain K12)), sequence (P0A8V2 whole entry, looked up): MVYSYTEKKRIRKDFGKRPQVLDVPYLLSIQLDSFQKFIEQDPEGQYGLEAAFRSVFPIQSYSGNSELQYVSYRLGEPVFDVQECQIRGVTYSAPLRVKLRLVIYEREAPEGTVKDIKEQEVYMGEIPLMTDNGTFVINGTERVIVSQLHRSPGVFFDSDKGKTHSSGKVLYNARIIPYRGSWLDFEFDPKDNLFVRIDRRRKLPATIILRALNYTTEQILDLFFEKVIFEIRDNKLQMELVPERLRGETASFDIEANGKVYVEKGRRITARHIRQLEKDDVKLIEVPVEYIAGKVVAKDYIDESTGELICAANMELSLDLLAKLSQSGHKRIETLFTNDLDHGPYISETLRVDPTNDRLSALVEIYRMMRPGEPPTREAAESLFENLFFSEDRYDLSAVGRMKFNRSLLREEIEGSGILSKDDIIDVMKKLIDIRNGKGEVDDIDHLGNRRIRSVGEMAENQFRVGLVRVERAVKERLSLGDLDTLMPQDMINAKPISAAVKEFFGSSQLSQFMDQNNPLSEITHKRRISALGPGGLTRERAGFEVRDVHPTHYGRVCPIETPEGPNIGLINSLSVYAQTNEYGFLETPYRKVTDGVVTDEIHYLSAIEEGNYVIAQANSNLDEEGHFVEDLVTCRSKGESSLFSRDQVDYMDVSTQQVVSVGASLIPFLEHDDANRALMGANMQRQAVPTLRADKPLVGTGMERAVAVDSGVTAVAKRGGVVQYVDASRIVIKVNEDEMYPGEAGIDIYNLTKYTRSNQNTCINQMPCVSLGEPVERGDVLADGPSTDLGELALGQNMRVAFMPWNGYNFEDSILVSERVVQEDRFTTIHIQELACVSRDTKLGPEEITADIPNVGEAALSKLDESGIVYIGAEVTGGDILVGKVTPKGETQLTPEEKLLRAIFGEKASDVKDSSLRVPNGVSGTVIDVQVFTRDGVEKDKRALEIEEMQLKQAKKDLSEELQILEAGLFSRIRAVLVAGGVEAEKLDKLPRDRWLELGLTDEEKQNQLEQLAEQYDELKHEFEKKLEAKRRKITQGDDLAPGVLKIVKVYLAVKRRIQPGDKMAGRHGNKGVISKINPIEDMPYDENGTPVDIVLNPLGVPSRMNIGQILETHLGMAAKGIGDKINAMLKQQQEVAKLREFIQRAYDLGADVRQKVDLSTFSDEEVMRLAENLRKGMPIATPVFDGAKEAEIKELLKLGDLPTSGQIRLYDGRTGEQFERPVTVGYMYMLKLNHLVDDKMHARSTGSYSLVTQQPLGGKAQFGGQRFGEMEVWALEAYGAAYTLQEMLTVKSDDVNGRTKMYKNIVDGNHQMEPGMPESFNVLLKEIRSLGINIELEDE

Structure (SMILES) | IC50
COc1ccc(C2=NO[C@@H]3C(=O)N(c4c(C)cccc4C)C(=O)[C@H]23)cc1OC | > 50 µM (inactive)
CC(=O)C1=C(C)Nc2cc(C(F)(F)F)ccc2S1 | > 50 µM (inactive)
CC(C)(C)OC(=O)N1CCCC1C(=O)N1CCCC1C(=O)N1CCCC1C(=O)O (stereo not drawn) (Boc-Pro-Pro-Pro-OH; configuration not given here) | > 50 µM (inactive)
CCCCn1c(O)c(C(CC)=NCCCN(C)C)c(=O)[nH]c1=O | > 50 µM (inactive)
CCOC(=O)C1=C(c2ccccc2)OC(N)=C(C#N)C1C(C)C (configuration not stated) | > 50 µM (inactive)
COCCN1C(=O)C(O)=C(C(C)=O)C1c1ccc(OC)c(OC)c1 (configuration not stated) | > 50 µM (inactive)
O=C1N(O)C2(C=CCCC2)/C(=N\O)C12CCCCC2 (configuration not stated) | > 50 µM (inactive)
